Data from publication PMC7031302, “Design and synthesis of new energy restriction mimetic agents: Potent anti-tumor activities of hybrid motifs of aminothiazoles and coumarins” (Scientific Reports, 2020).
Like-named read-outs stand apart in the source and are kept apart here.

What was measured:
Format in all cases: cell-based, Human
[1] = test system: HCT116; assay: MTT cell viability, HCT116; conditions: for IC50: read-out: half-maximal inhibitory concentration (IC50) HCT116
Method: (§1) The potential cytotoxicity of 24 candidate compounds was initially evaluated at a single concentration level (5 μM). Then a full dose-response curve was plotted for each compound against different colorectal cancer cell lines (HCT116 and HT-29) by MTT assay after 72 h treatments. 4-hydroxycoumarin, OSU-CG5, and OSU-CG12 were used as positive controls. […] Compounds 9b, 9c, 9f, 9i, 11b, and 11c were selected for further studies to determine the full dose-response survival curves using different concentrations (0.1–20 µM) against CRC cell lines and normal fibroblast cell line (F180) at different time points (Fig. 2A–2F and supplementary material Page S63 and S64).
(§2) Human colorectal carcinoma cell lines (HCT116) and (HT-29) were obtained from the European Collection of Cell Cultures (ECACC, UK). The cell lines were cultured in Roswell Park Memorial Institute medium (RPMI-1640, Sigma-Aldrich-St. Louis, MO, USA) supplemented with 10% fetal bovine serum (Sigma-Aldrich-St. Louis, MO, USA) and 1% penicillin/streptomycin (Sigma-Aldrich- Louis, MO, USA). F180 cell line (Human Normal Fibroblast), was kindly given by professor Ekkehard Dikomey (University Cancer Center, Hamburg University, Hamburg, Germany) and were cultured in Dulbecco’s Modified Eagle’s medium (DMEM, Sigma-Aldrich-St. Louis, MO, USA) supplemented with 10% fetal bovine serum (Sigma-Aldrich-St. Louis, MO, USA) and 1% penicillin/streptomycin (Sigma-Aldrich- Louis, MO, USA). All cell incubations were done at 37 °C in a humidified atmosphere of 5% CO2.
(§3) Cell viability was assessed using, 3-(4,5-dimethylthiazol-2-yl)-2,5-diphenyltetrazolium bromide (MTT) assay as previously described. In summary, cancer cell lines or F180 were seeded in complete medium at the density of 3 × 10^3/well and 5 × 10^3/well respectively in 96 well flat-bottom plates. After 24 h, cells were incubated with the candidate compounds at the indicated concentration for (24, 48 or 72 h). DMSO was used as vehicle control and 4-Hydroxycoumarin was purchased from (Sigma-Aldrich, St. Louis, MO, USA) and Cisplatin from Hospira UK Ltd. At the end of treatment, the media were aspirated from each well and incubated with 200 µL of MTT tetrazolium dye (Sigma-Aldrich, St. Louis, MO, USA) at a final concentration of 0.5 mg/ml for 2 h at 37 °C. The reduced MTT crystals were solubilized in 200 µl/well of DMSO and the absorbance was measured at 570 nm using a microplate reader (Thermo-Scientific, Vantaa, Finland).

[2] = test system: HT-29; assay: MTT cell viability, HT-29; conditions: for IC50: read-out: half-maximal inhibitory concentration (IC50) HT-29
Method: as §1, §2, §3

[3] = test system: colorectal cancer cell lines, HCT116 and HT-29; assay: MTT cell viability, colorectal cancer cell lines (summary statements); conditions: for anticancer activities in initial screening, in words: HT-29 and HCT116 cancer cell lines; for IC50: both cell lines, summary statement
Method: as §1, §2, §3

[4] = Homo sapiens, HCT-116, 72 h, 72 h, MTT assay, mean ± SD (n = 6)
[5] = Homo sapiens, HT-29, 72 h, 72 h, MTT assay, mean ± SD (n = 6)
[6] = 72 h, MTT assay, mean ± SD (n = 6)

Row | Compound | IC50 [1, 4] [µM] | IC50 [2, 5] [µM] | other results
1 | COc1cccc(-c2csc(Nc3ccc4c(C)cc(=O)oc4c3)n2)c1 [Compound 9e, 7-(4-(3-Methoxyphenyl)thiazol-2-ylamino)-4-methyl-2H-chromen-2-one] | 3.05 ± 0.14 | 3 ± 0.159 | –
2 | CCc1cc(=O)oc2cc(Nc3nc(-c4ccccc4)cs3)ccc12 [Compound 10a, 4-Ethyl-7-(4-phenylthiazol-2-ylamino)-2H-chromen-2-one] | > 30 | > 30 | –
3 | CCc1cc(=O)oc2cc(Nc3nc(-c4cccc(F)c4)cs3)ccc12 [Compound 10g, 4-Ethyl-7-(4-(3-fluorophenyl)thiazol-2-ylamino)-2H-chromen-2-one] | 4.08 ± 2.68 | 2.34 ± 0.615 | –
4 | CCc1cc(=O)oc2cc(Nc3nc(-c4ccc(Br)cc4)cs3)ccc12 [Compound 10b, 7-(4-(4-Bromophenyl)thiazol-2-ylamino)-4-ethyl-2H-chromen-2-one] | 3.03 ± 2.25 | 2.97 ± 0.2 | –
5 | Cc1cc(=O)oc2cc(Nc3nc(-c4cccc(F)c4)cs3)ccc12 [Compound 9g, 7-(4-(3-Fluorophenyl)thiazol-2-ylamino)-4-methyl-2H-chromen-2-one] | 3.5 ± 0.93 | 2.91 ± 1.25 | –
6 | CCC(CC)CN1C(=O)S/C(=C\c2ccc(O)c(C(F)(F)F)c2)C1=O [OSU-CG5, reference compound] | – | – | IC50 [1, 6]: 2.85 ± 0.111 µM; IC50 [2, 6]: 10.1 ± 0.373 µM
7 | Cc1cc(=O)oc2cc(Nc3nc(-c4ccccc4[N+](=O)[O-])cs3)ccc12 [Compound 9h, 4-Methyl-7-(4-(2-nitrophenyl)thiazol-2-ylamino)-2H-chromen-2-one] | > 30 | > 30 | –
8 | COc1ccccc1-c1csc(Nc2ccc3c(C)cc(=O)oc3c2)n1 [Compound 9i, 7-(4-(2-Methoxyphenyl)thiazol-2-ylamino)-4-methyl-2H-chromen-2-one] | 0.32 ± 0.041 | 0.32 ± 0.017 | anticancer activities in initial screening, in words [3]: significant anticancer activities; IC50 [3]: < 0.6 µM
9 | CCOc1ccc(-c2csc(Nc3ccc4c(C)cc(=O)oc4c3)n2)cc1 [Compound 9d, 7-(4-(4-Ethoxyphenyl)thiazol-2-ylamino)-4-methyl-2H-chromen-2-one] | 3.21 ± 0.88 | 3.03 ± 0.0205 | –
10 | Cc1cc(=O)oc2cc(Nc3nc(-c4ccc(Cl)cc4)cs3)ccc12 [Compound 9c, 7-(4-(4-Chlorophenyl)thiazol-2-ylamino)-4-methyl-2H-chromen-2-one] | 0.31 ± 0.014 | 0.37 ± 0.077 | anticancer activities in initial screening, in words [3]: significant anticancer activities; IC50 [3]: < 0.6 µM
11 | CCc1cc(=O)oc2cc(Nc3nc(-c4ccccc4OC)cs3)ccc12 [Compound 10i, 4-Ethyl-7-(4-(2-methoxyphenyl)thiazol-2-ylamino)-2H-chromen-2-one] | 13.5 ± 0.2 | 3.96 ± 1.65 | –
12 | O=c1cc(O)c2ccccc2o1 [4-Hydroxycoumarin, reference compound] | – | – | IC50 ([1]; Homo sapiens, HCT-116, 72 h): > 200 µM; IC50 ([2]; Homo sapiens, HT-29, 72 h): > 200 µM
13 | CCc1cc(=O)oc2cc(Nc3nc(-c4ccc(Cl)cc4)cs3)ccc12 [Compound 10c, 7-(4-(4-Chlorophenyl)thiazol-2-ylamino)-4-ethyl-2H-chromen-2-one] | 3.54 ± 0.53 | 1.3 ± 0.127 | –
14 | CCc1cc(=O)oc2cc(Nc3nc(-c4cccc(OC)c4)cs3)ccc12 [Compound 10e, 4-Ethyl-7-(4-(3-methoxyphenyl)thiazol-2-ylamino)-2H-chromen-2-one] | > 30 | 13.1 ± 1.39 | –
15 | N.N.[Cl][Pt][Cl] [cisplatin, Cisplatin, reference compound] | – | – | IC50 of cisplatin as a single compound, HCT116 ([1]; single compound, 72 h MTT): 1.93 µg/mL; IC50 of cisplatin as a single compound, HT-29 ([2]; single compound, 72 h MTT): 1.81 µg/mL
16 | CCc1cc(=O)oc2cc(Nc3nc(-c4cccc([N+](=O)[O-])c4)cs3)ccc12 [Compound 10f, 4-Ethyl-7-(4-(3-nitrophenyl)thiazol-2-ylamino)-2H-chromen-2-one] | 10.3 ± 3.15 | 4.41 ± 1.37 | –
17 | Cc1cc(=O)oc2cc(Nc3nc(-c4ccccc4)cs3)ccc12 [Compound 9a, 4-Methyl-7-(4-phenylthiazol-2-ylamino)-2H-chromen-2-one] | – | 1.54 ± 0.02 | anticancer activities in initial screening, in words [3]: significant anticancer activities
18 | CCc1cc(=O)oc2cc(Nc3nc(-c4ccccc4[N+](=O)[O-])cs3)ccc12 [Compound 10h, 4-Ethyl-7-(4-(2-nitrophenyl)thiazol-2-ylamino)-2H-chromen-2-one] | 4.73 ± 1.93 | 1.68 ± 0.47 | –

Further lines, with some results ahead:

Row | IC50 [1, 4] [µM] | IC50 [2, 5] [µM] | Compound | other results
19 | 6.76 ± 0.28 | 2.13 ± 0.3 | CCCc1cc(=O)oc2cc(Nc3nc(-c4ccccc4)cs3)ccc12 [Compound 11a, 7-(4-Phenylthiazol-2-ylamino)-4-propyl-2H-chromen-2-one] | –
20 | > 30 | 3.66 ± 0.038 | CCCc1cc(=O)oc2cc(Nc3nc(-c4cccc([N+](=O)[O-])c4)cs3)ccc12 [Compound 11f, 7-(4-(3-Nitrophenyl)thiazol-2-ylamino)-4-propyl-2H-chromen-2-one] | –
21 | 0.26 ± 0.016 | 0.25 ± 0.004 | CCCc1cc(=O)oc2cc(Nc3nc(-c4ccc(Br)cc4)cs3)ccc12 [Compound 11b, 7-(4-(4-Bromophenyl)thiazol-2-ylamino)-4-propyl-2H-chromen-2-one] | anticancer activities in initial screening, in words [3]: significant anticancer activities; IC50 [3]: < 0.6 µM
22 | 28.6 ± 6.56 | 8.89 ± 0.813 | CCCc1cc(=O)oc2cc(Nc3nc(-c4cccc(OC)c4)cs3)ccc12 [Compound 11e, 7-(4-(3-Methoxyphenyl)thiazol-2-ylamino)-4-propyl-2H-chromen-2-one] | –
23 | 0.34 ± 0.0009 | 0.33 ± 0.032 | CCCc1cc(=O)oc2cc(Nc3nc(-c4ccc(Cl)cc4)cs3)ccc12 [Compound 11c, 7-(4-(4-Chlorophenyl)thiazol-2-ylamino)-4-propyl-2H-chromen-2-one] | anticancer activities in initial screening, in words [3]: significant anticancer activities; IC50 [3]: < 0.6 µM
24 | 4.08 ± 1.36 | 1.8 ± 0.76 | CCCc1cc(=O)oc2cc(Nc3nc(-c4cccc(F)c4)cs3)ccc12 [Compound 11g, 7-(4-(3-Fluorophenyl)thiazol-2-ylamino)-4-propyl-2H-chromen-2-one] | –
25 | 6.3 ± 0.605 | 3.96 ± 0.014 | CCCc1cc(=O)oc2cc(Nc3nc(-c4ccccc4[N+](=O)[O-])cs3)ccc12 [Compound 11h, 7-(4-(2-Nitrophenyl)thiazol-2-ylamino)-4-propyl-2H-chromen-2-one] | –
